Experimental findings from ChEMBL document CHEMBL3734721 (J Med Chem, 2015) are described below.

pEC50, pIC50: −log10 of the molar value.

One series has as its target D(2) dopamine receptor (Homo sapiens, UniProt P14416). The series is described as follows: Agonist activity at human wild-type D2 receptor expressed in CHO-K1 cells assessed as cAMP level by HTRF assay. The series is classed as functional, cell-based. On the technique in general: Cyclic AMP is a second messenger, typically raised through Gs and lowered through Gi signalling.

Series [1] deals with T1, Vasopressin V1a receptor (Homo sapiens, UniProt P37288). The series is described as follows: Antagonist activity at human wild-type AVPR1A receptor expressed in CHO-K1 cells assessed as vassopressin-induced calcium by FDSS assay. The format is functional, cell-based.
The target in the next series is Cytochrome P450 3A4 (Homo sapiens, UniProt P08684). The series is described as follows: Inhibition of human CYP3A4 by LC-MS analysis. The series is classed as ADME.
In series [2] the target is 5-hydroxytryptamine receptor 1B (Homo sapiens, UniProt P28222). Put plainly: Antagonist activity at human 5-HT1B receptor expressed in CHO-K1 cells assessed as seretonin-induced cAMP level by HTRF assay. The format is functional, cell-based.
In series [3] the target is 5-hydroxytryptamine receptor 7 (Homo sapiens, UniProt P34969). The series is described as follows: Agonist activity at human wild-type 5-HT7 receptor expressed in HEK cells assessed as cAMP by HTRF assay. The series is classed as functional, cell-based, HEK293.
Another series addresses D(1A) dopamine receptor (Homo sapiens, UniProt P21728). The series is described as follows: Agonist activity at human wild-type D1 receptor expressed in CHO cells assessed as cAMP level by HTRF assay. The format is functional, cell-based.
Series [4] has as its target T2, Alpha-2A adrenergic receptor (Homo sapiens, UniProt P08913).
T2 sequence (P08913 whole entry): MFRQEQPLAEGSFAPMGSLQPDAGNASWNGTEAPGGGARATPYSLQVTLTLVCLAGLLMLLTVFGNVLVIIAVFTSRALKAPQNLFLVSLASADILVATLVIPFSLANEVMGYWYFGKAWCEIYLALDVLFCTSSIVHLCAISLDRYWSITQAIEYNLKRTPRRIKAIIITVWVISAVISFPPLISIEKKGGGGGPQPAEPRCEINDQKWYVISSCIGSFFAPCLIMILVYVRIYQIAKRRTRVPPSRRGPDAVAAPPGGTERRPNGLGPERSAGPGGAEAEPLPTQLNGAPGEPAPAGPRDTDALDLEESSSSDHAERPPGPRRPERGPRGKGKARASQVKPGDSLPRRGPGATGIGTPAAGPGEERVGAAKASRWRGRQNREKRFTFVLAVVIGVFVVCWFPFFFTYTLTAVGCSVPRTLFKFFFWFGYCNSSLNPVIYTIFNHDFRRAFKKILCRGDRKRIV
The series is described as follows: Antagonist activity at human wild-type alpha 2A receptor expressed in CHO-K1 cells assessed as epinephrine-induced cAMP by HTRF assay. The series is classed as functional, cell-based.

Series [5] can be described thus: Log D of compound at pH 7.4 by chromotography. The format is physicochemical. To be noted: buffer.
A further series deals with Mu-type opioid receptor (Homo sapiens, UniProt P35372). Put plainly: Antagonist activity at human wild-type opioid-mu receptor expressed in CHO-K1 cells assessed as DAMGO-induced cAMP by HTRF assay. The series is classed as functional, cell-based. In general terms: In TR-FRET formats the signal depends on donor and acceptor labels being close together.
Series [6] is described as follows: Chemical stability of compound in 0.1N NaOH assessed as compound remaining at 10 mg/ml after 1 day. The series is classed as physicochemical. As to conditions: read-out: Stability.
The test system of another series is human MDR1. The series is described as follows: Permeability across apical to basolateral in MDCK expressing human MDR1 at 5 uM by LC-MS/MS method. The format is ADME, cell-based, Canis lupus familiaris. To be noted: dog, read-out: permeability.
Series [7] addresses T3, Muscarinic acetylcholine receptor M2 (Homo sapiens, UniProt P08172).
T3 sequence (P08172 whole entry): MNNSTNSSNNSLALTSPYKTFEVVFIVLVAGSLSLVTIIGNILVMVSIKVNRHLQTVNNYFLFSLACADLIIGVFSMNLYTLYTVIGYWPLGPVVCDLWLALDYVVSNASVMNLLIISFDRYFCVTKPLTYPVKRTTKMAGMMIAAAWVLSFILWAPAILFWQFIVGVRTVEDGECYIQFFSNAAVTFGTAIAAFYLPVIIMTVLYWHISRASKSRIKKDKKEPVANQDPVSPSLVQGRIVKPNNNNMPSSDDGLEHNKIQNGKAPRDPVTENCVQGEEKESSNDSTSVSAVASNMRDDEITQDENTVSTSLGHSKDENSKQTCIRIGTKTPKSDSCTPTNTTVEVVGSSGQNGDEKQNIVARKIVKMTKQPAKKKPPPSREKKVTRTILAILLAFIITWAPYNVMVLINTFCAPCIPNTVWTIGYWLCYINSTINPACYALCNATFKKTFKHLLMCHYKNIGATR
The series is described as follows: Antagonist activity at human wild-type M2 receptor expressed in CHO-K1 cells assessed as acetylcholine-induced cAMP by HTRF assay. The format is functional, cell-based.

A further series has as its system HepG2. Put plainly: Cytotoxicity against human HepG2 cells. The series is classed as cell-based.
The nature of series [8]: Intrinsic clearance in mouse liver microsomes at 1 uM by HPLC/MS/MS analysis. The series is classed as ADME. To be noted: read-out: CLH.
Series [9] concerns the target T1, Vasopressin V1a receptor. Put plainly: Agonist activity at human wild-type AVPR1A receptor expressed in CHO-K1 cells assessed as calcium level by FDSS assay. The series is classed as functional, cell-based.
Series [10] deals with 5-hydroxytryptamine receptor 1A (Homo sapiens, UniProt P08908). The series is described as follows: Antagonist activity at human 5-HT1A receptor expressed in CHO-K1 cells assessed as seretonin-induced cAMP level by HTRF assay. The format is functional, cell-based.
Series [11] can be described thus: Chemical stability of compound in DMSO assessed as compound remaining at 10 mg/ml after 1 day at room temperature. The series is classed as physicochemical. To be noted: read-out: Stability.
The next series has as its target T4, Cytochrome P450 2C8 (Homo sapiens, UniProt P10632).
T4 sequence (P10632 whole entry): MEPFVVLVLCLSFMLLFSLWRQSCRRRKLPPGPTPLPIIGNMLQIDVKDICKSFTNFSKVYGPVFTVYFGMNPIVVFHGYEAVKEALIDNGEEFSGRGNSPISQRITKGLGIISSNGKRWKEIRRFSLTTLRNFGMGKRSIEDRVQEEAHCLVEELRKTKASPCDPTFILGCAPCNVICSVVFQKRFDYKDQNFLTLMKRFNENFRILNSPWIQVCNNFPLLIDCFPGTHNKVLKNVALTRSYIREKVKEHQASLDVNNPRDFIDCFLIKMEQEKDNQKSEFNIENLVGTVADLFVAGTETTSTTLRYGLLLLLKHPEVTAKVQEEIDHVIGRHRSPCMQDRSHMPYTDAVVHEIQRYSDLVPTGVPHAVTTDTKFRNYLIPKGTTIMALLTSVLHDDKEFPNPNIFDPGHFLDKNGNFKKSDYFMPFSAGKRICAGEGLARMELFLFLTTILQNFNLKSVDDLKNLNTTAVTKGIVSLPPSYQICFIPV
Put plainly: Inhibition of human CYP2C8 by LC-MS analysis. The series is classed as ADME.

The target in series [12] is 5-hydroxytryptamine receptor 6 (Homo sapiens, UniProt P50406). The series is described as follows: Agonist activity at human 5-HT6 receptor expressed in 1321N1 cells assessed as cAMP by HTRF assay. The series is classed as functional, cell-based.
In a further series the test system is Liver microsome. Put plainly: Metabolic stability in human liver microsomes assessed as CN adduct formation at 40 uM for 1 hr by LC/MS analysis. The format is ADME. (Liver microsomes are vesicles of endoplasmic reticulum, rich in cytochrome P450 enzymes.)
Series [13] deals with Beta-1 adrenergic receptor (Homo sapiens, UniProt P08588). Put plainly: Antagonist activity at human beta1 receptor expressed in CHO-K1 cells assessed as isoproterenol-induced cAMP level by HTRF assay. The format is functional, cell-based.
Chain of Beta-1 adrenergic receptor (P08588 whole entry): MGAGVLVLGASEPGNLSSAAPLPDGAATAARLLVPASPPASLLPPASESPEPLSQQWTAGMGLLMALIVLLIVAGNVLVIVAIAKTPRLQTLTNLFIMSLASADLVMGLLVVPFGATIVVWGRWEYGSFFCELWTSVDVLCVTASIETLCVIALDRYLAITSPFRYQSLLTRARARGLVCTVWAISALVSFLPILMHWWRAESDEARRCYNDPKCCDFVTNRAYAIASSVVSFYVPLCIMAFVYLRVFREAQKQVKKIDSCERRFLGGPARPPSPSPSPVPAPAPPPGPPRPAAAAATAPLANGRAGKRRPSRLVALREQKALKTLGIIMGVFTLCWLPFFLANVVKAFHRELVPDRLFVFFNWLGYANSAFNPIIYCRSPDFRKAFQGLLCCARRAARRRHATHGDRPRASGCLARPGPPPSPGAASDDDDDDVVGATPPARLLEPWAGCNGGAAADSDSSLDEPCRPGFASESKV

T1 sequence (P37288 whole entry): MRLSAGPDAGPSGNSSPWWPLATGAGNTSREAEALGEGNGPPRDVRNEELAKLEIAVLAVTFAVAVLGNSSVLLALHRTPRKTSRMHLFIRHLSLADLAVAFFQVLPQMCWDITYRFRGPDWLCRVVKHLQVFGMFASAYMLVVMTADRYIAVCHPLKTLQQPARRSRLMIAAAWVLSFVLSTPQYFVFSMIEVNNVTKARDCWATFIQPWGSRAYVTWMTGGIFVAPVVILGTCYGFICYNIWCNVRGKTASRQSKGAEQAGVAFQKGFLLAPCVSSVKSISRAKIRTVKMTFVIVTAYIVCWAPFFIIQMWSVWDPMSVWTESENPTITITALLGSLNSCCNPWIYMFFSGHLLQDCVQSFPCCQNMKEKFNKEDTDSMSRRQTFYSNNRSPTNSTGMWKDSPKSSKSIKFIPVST
Chain of D(2) dopamine receptor (P14416 whole entry): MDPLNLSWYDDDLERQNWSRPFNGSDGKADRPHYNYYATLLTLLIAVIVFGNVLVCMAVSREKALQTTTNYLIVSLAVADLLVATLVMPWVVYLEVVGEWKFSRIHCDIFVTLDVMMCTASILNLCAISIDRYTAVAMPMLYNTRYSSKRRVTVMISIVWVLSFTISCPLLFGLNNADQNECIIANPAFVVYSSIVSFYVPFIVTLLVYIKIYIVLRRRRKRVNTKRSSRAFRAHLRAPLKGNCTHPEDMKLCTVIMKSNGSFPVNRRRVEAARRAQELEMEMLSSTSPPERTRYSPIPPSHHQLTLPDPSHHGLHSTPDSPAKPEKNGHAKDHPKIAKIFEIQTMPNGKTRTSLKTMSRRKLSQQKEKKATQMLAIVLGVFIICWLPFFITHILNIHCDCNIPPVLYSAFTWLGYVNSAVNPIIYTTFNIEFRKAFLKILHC
Chain of Cytochrome P450 3A4 (P08684 whole entry): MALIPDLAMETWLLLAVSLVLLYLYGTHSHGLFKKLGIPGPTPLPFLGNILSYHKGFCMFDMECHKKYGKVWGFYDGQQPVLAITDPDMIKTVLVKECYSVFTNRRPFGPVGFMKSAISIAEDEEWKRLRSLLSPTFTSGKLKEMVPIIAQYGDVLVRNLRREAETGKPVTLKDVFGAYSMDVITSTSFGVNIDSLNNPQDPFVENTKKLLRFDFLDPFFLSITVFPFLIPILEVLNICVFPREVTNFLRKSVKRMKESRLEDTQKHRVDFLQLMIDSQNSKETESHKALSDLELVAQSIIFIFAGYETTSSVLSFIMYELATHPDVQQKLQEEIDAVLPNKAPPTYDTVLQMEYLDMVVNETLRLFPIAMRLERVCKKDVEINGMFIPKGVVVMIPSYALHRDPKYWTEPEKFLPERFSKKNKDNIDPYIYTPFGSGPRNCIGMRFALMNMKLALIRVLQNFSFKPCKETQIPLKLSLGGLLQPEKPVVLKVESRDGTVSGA
Chain of D(1A) dopamine receptor (P21728 whole entry): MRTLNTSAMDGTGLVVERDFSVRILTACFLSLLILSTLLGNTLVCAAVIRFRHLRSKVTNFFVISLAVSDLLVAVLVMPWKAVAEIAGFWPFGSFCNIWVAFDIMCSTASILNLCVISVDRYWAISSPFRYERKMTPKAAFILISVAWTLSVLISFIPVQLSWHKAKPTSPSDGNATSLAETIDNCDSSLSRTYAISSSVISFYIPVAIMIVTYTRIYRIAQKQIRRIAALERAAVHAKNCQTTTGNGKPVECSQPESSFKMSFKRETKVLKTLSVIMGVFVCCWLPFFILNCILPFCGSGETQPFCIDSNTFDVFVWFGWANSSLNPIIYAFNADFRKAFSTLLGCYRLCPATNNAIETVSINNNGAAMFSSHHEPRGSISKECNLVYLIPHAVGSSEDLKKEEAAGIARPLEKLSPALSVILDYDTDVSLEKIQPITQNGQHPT
Chain of 5-hydroxytryptamine receptor 1A (P08908 whole entry): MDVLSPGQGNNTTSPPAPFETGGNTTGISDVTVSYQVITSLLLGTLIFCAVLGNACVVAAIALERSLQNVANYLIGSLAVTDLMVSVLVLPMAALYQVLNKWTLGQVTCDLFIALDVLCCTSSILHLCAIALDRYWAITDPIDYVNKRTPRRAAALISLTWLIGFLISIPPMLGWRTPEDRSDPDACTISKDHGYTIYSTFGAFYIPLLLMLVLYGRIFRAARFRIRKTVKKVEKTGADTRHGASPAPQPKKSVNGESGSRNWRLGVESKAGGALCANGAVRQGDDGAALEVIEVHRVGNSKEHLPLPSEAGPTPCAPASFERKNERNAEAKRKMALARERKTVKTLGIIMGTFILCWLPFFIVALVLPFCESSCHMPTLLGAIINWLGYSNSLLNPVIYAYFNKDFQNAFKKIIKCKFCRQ
Chain of 5-hydroxytryptamine receptor 7 (P34969 whole entry): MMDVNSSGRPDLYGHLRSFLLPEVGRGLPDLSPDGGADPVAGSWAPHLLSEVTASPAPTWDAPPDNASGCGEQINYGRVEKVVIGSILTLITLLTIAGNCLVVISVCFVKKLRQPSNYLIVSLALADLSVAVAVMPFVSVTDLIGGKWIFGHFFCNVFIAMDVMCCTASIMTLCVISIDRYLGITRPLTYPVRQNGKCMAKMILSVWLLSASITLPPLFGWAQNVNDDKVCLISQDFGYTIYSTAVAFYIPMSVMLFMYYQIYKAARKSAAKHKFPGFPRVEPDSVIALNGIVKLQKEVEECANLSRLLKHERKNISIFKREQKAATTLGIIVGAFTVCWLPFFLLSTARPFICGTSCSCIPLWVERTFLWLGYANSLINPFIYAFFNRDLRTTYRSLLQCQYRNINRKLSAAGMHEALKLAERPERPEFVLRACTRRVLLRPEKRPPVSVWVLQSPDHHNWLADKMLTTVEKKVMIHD
Chain of 5-hydroxytryptamine receptor 6 (P50406 whole entry): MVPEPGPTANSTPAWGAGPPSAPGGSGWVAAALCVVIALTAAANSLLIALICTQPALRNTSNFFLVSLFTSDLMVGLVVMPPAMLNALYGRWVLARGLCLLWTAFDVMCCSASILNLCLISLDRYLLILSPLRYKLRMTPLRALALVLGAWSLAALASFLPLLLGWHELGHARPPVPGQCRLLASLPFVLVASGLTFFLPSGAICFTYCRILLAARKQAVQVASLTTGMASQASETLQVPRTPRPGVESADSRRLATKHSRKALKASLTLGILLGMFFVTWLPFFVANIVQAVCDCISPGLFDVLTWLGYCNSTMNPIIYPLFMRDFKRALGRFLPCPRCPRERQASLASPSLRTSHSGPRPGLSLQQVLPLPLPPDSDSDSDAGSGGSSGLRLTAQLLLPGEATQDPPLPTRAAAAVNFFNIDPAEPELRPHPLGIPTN
Chain of 5-hydroxytryptamine receptor 1B (P28222 whole entry): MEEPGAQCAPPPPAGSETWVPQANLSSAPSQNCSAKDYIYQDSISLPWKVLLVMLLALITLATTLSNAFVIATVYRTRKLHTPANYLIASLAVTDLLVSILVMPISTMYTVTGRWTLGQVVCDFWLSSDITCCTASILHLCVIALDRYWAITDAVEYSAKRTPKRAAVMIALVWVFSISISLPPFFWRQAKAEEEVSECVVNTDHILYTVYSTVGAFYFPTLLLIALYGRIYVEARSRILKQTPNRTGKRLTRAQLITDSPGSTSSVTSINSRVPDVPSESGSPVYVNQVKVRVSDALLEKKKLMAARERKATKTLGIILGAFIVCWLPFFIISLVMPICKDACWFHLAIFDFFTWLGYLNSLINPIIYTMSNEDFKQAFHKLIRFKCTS
Chain of Mu-type opioid receptor (P35372 whole entry): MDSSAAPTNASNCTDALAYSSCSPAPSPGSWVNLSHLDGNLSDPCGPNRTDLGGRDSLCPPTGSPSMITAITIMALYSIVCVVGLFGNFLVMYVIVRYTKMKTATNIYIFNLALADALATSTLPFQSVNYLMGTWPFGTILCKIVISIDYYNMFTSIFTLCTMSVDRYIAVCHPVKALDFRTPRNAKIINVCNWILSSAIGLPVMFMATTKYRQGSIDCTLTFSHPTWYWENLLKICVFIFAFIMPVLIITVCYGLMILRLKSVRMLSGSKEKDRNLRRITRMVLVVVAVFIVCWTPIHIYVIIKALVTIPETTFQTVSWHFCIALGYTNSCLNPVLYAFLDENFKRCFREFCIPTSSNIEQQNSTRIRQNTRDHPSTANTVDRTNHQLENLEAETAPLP

As usually defined, the pEC50 is the EC50 on a negative log10 scale, so that one unit is a factor of ten. In general, pIC50 refers to the negative decadic logarithm of the IC50, by convention in mol/L. The term chromatographic logD denotes lipophilicity estimated from chromatographic retention. Read a high chromatographic logD as higher lipophilicity. A word on the EC20: it is the point of the concentration-response curve where the effect stands at 20%. A lower EC20 goes with an effect from little substance. Turning to `CB1C=Cc2c(cccc2OCC(O)CN(C)C)N1` (configuration not stated), the pEC50 (at D(2) dopamine receptor; in series [3]; on D(1A) dopamine receptor; at Vasopressin V1a receptor [9]; in [12]) was under 5.30 throughout. In addition, the pIC50 at Vasopressin V1a receptor [1] is under 5.30; against Cytochrome P450 3A4, under 5.00; in series [2], under 5.30; in [4] it was under 5.30; at Mu-type opioid receptor, under 5.30; in [7], under 5.30. For the same compound, the pIC50 in [10] is 5.70; on Cytochrome P450 2C8, under 5.00; in [13], 6.70. In series [5], this compound came in with a chromatographic logD of 1.81. Further, the remaining at 24 h, 10 mg/ml was determined as 89% in series [6] and 97% in series [11]. Also, in the series with human MDR1, the Papp A→B at 5 µM came out at 2.3 ×10⁻⁶ cm/s. The compound further displayed an EC20 in the series on HepG2 of 59 µM. In series [8], the microsomal CLint at 1 µM came to 175 µL/min/mg. For the same compound, in the series with Liver microsome, the Stability result is given as “Stable”.
As to `CB1C=Cc2cccc(OCC(O)CNC(C)C)c2N1` (configuration not stated), the pEC50 (on D(2) dopamine receptor; in series [3]; at D(1A) dopamine receptor; at Vasopressin V1a receptor [9]; in series [12]) was under 5.30 in each case. Besides, the pIC50 is under 5.30 at Vasopressin V1a receptor [1]; under 5.00 at Cytochrome P450 3A4; under 5.30 in [2]; under 5.30 in series [4]; under 5.30 at Mu-type opioid receptor; under 5.30 in series [7]. Besides, the pIC50 in [10] was under 5.30; against Cytochrome P450 2C8 it was under 5.00; in series [13], 6.20. The chromatographic logD in [5] was 2.31. Moreover, the remaining at 24 h, 10 mg/ml in series [6] is 88%; in [11], 96%. In addition, the Papp A→B at 5 µM with human MDR1 worked out at 1.3 ×10⁻⁶ cm/s. Also, the EC20 in the series with HepG2 came out at 18.7 µM. In addition, in [8], the microsomal CLint at 1 µM was over 346 µL/min/mg. The Stability result with Liver microsome is recorded as “Stable”.
